Experimental data from patent US8895745B2, “Bicyclic heterocyclic compounds as FGFR inhibitors” (Astex Therapeutics Limited, priority 2006, dated 2014).
Where a name gives a salt, the structure may show the parent alone.

The compounds below were run on LP-1 cell line (assay: Cell-based pERK ELISA method, LP-1 cells). Settings: Homo sapiens, LP-1, read-out: IC50 less than 1 μM or at least 50% inhibition at a concentration of 1 μM, LP-1 pERK ELISA.

IC50 [µM]	SMILES
< 1	O=C(NCC(F)(F)F)Nc1cccc(-c2cnc3cc(-c4cccc(CO)c4)ccn23)c1 [Example 219, 1-{3-[7-(3-Hydroxy-methyl-phenyl)-imidazo[1,2-a]pyridin-3-yl]-phenyl}-3-(2,2,2-trifluoro-ethyl)-urea]
< 1	O=C(NCC(F)(F)F)Nc1cccc(-n2cnc3cc(-c4ccc(F)cc4)ccc32)c1 [Example 175, 1-{3-[5-(4-Fluoro-phenyl)-benzoimidazol-1-yl]-phenyl}-3-(2,2,2-trifluoro-ethyl)-urea]
< 1	O=C(NCC(F)(F)F)Nc1cccc(-c2cnc3cc(C4CC4)ccn23)c1 [Example 334, 1-[3-(7-Cyclopropyl-imidazo[1,2-a]pyridin-3-yl)-phenyl]-3-(2,2,2-trifluoro-ethyl)-urea Formate]
< 1	CC(=O)Nc1cccc(-c2cnc3cc(-c4ccnc(N5CCN(C)CC5)c4)ccn23)c1 [Example 62, N-(3-{7-[2-(4-Methyl-piperazin-1-yl)-pyridin-4-yl]-imidazo[1,2-a]pyridin-3-yl}-phenyl)-acetamide]
< 1	Cn1c(-c2ccn3c(-c4cccc(NC(=O)NCC(F)(F)F)c4)cnc3c2)n[nH]c1=S [Example 332, 1-{3-[7-(4-Methyl-5-thioxo-4,5-dihydro-1H-[1,2,4]triazol-3-yl)-imidazo[1,2-a]pyridin-3-yl]-phenyl}-3-(2,2,2-trifluoro-ethyl)-urea]
< 1	CC(=O)Nc1cccc(-c2cnc3cc(-c4ccccc4)ccn23)c1 [Example 2, N-[3-(7-Phenyl-imidazo[1,2-a]pyridin-3-yl)-phenyl]-acetamide hydro-chloride salt]
< 1	CCNC(=O)Nc1cc(OC)cc(-c2cnc3cc(-c4ccc(F)cc4)ccn23)c1 [Example 216, 1-Ethyl-3-{3-[7-(4-fluoro-phenyl)-imidazo[1,2-a]pyridin-3-yl]-5-methoxy-phenyl}-urea]
< 1	CCCn1cc(-c2ccn3c(-c4cccc(NC(=O)NCC(F)(F)F)c4)cnc3c2)cn1 [Example 256, 1-{3-[7-(1-Propyl-1H-pyrazol-4-yl)-imidazo[1,2-a]pyridin-3-yl]-phenyl}-3-(2,2,2-trifluoro-ethyl)-urea formate]
< 1	O=C(NCC(F)(F)F)Nc1cccc(-c2cnc3cc(-c4ccc(C5CNCCN5)cc4)ccn23)c1 (centres unmarked) [Example 296, 1-{3-[7-(4-Piperazin-2-yl-phenyl)-imidazo[1,2-a]pyridin-3-yl]-phenyl}-3-(2,2,2-trifluoro-ethyl)-urea hydrochloride]
< 1	CC(=O)Nc1cccc(-c2cnc3cc(-c4ccncc4)ccn23)c1 [Example 6, N-[3-(7-Pyridin-4-yl-imidazo[1,2-a]pyridin-3-yl)-phenyl]-acetamide]
< 1	O=C(NCC(F)(F)F)Nc1cccc(-c2cnc3cc(-c4ccc(F)c(Cl)c4)ccn23)c1 [Example 284, 1-{3-[7-(3-Chloro-4-fluoro-phenyl)-imidazo[1,2-a]pyridin-3-yl]-phenyl}-3-(2,2,2-trifluoro-ethyl)-urea]
< 1	CCNC(=O)Nc1cc(-c2cnn3cc(-c4ccc(F)cc4)cnc23)ccn1 [Example 204, 1-Ethyl-3-{4-[6-(4-fluoro-phenyl)-pyrazolo[1,5-a]pyrimidin-3-yl]-pyridin-2-yl}-urea]
< 1	CCNC(=O)Nc1cccc(-n2cnc3cc(-c4ccc(F)cc4)cnc32)c1 [Example 169, 1-Ethyl-3-{3-[6-(4-fluoro-phenyl)-imidazo[4,5-b]pyridin-3-yl]-phenyl}-urea]
< 1	O=C(NCC(F)(F)F)Nc1cc(CO)cc(-c2cnc3cc(-c4ccc(F)cc4)ccn23)c1 [Example 258, 1-{3-[7-(4-Fluoro-phenyl)-imidazo[1,2-a]pyridin-3-yl]-5-hydroxymethyl-phenyl}-3-(2,2,2-trifluoro-ethyl)-urea]
< 1	O=C(NCC(F)(F)F)Nc1cccc(-c2cnc3cc(-c4cccc(Cl)c4)ccn23)c1 [Example 278]
< 1	CC(=O)Nc1cccc(-c2cnc3ccc(-c4csc5ccccc45)cn23)c1 [Example 103, N-[3-(6-Benzo[b]thiophen-3-yl-imidazo[1,2-a]pyridin-3-yl)-phenyl]-acetamide]
< 1	CCNC(=O)Nc1cccc(-c2cnc3cc(-c4cnn(C)c4)ccn23)c1 [Example 94, 1-Ethyl-3-{3-[7-(1-methyl-1H-pyrazol-4-yl)-imidazo[1,2-a]pyridin-3-yl]-phenyl}-urea]
< 1	O=C(NCC(F)(F)F)Nc1cccc(-c2cnc3cc(Cl)ccn23)c1 [Example 228]
< 1	CN(C)S(=O)(=O)n1cc(-c2ccn3c(-c4cccc(NC(=O)NCC(F)(F)F)c4)cnc3c2)cn1 [Example 262, 4-(3-{3-[3-(2,2,2-Trifluoro-ethyl)-ureido]-phenyl}-imidazo[1,2-a]pyridin-7-yl)-pyrazole-1-sulfonic acid dimethylamide]
< 1	CC(=O)Nc1cccc(-c2cnc3cc(-c4ccc(N5CCOCC5)cc4)ccn23)c1 [Example 5, N-{3-[7-(4-Morpholin-4-yl-phenyl)-imidazo[1,2-a]pyridin-3-yl]-phenyl}-acetamide]
< 1	CC(=O)Nc1cccc(-c2cnc3cc(-c4ccc(F)cc4)ccn23)c1 [Example 7, N-{3-[7-(4-Fluoro-phenyl)-imidazo[1,2-a]pyridin-3-yl]-phenyl}-acetamide]
< 1	COCCNC(=O)c1cccc(-c2ccn3c(-c4cccc(NC(=O)NCC(F)(F)F)c4)cnc3c2)c1 [Example 263, N-(2-Methoxy-ethyl)-3-(3-{3-[3-(2,2,2-trifluoro-ethyl)-ureido]-phenyl}-imidazo[1,2-a]pyridin-7-yl)-benzamide]
< 1	O=C(NCC(F)(F)F)Nc1ccc(F)c(-c2cnc3cc(Cl)ccn23)c1 [Example 252, 1-[3-(7-Chloro-imidazo[1,2-a]pyridin-3-yl)-4-fluoro-phenyl]-3-(2,2,2-trifluoro-ethyl)-urea]
< 1	O=C(NCC(F)(F)F)Nc1cccc(-c2cnc3cc(-c4ccc5c(c4)OCO5)ccn23)c1 [Example 141, Hydrochloride]
< 1	CCNC(=O)Nc1cccc(-c2cnc3cc(-c4cccc(C(=O)N5CCN(C)CC5)c4)ccn23)c1 [Example 79, 1-Ethyl-3-(3-{7-[3-(4-methyl-piperazine-1-carbonyl)-phenyl]-imidazo[1,2-a]pyridin-3-yl}-phenyl)-urea]
< 1	CCNC(=O)Nc1cccc(-c2cnc3cc(-c4ccc(OC)nc4)ccn23)c1 [Example 43, 1-Ethyl-3-{3-[7-(6-methoxy-pyridin-3-yl)-imidazo[1,2-a]pyridin-3-yl]-phenyl}-urea]
< 1	Nc1ccc(-c2cnc3c(-c4cccc(NC(=O)NCC(F)(F)F)c4)cnn3c2)cn1 [Example 113, 1-{3-[6-(6-Amino-pyridin-3-yl)-pyrazolo[1,5-a]pyrimidin-3-yl]-phenyl}-3-(2,2,2-trifluoro-ethyl)-urea hydrochloride salt]
< 1	CCNC(=O)Nc1cccc(-n2cnc3cc(-c4ccc(F)cc4)ccc32)c1 [Example 159, 1-Ethyl-3-{3-[5-(4-fluoro-phenyl)-benzoimidazol-1-yl]-phenyl}-urea Hydrochloride]

Same assay, conditions: Homo sapiens, LP-1, read-out: LP-1 pERK ELISA (μM)

IC50 [µM]	SMILES
0.0042	Cc1nnc(-c2ccn3c(-c4cccc(NC(=O)NCC(F)(F)F)c4)cnc3c2)s1 [Example 310, 1-{3-[7-(5-Methyl-[1,3,4]-thiadiazol-2-yl)-imidazo[1,2-a]pyridin-3-yl]-phenyl}-3-(2,2,2-trifluoro-ethyl)-urea]
